# Data as given in patent publication US20250197382A1, “KIF18A INHIBITOR” (WIGEN BIOMEDICINE TECHNOLOGY (SHANGHAI) CO., LTD., priority 2022, published 2025).
# Biological target: Recombinant human KIF18A (1-467His-tagged) protein (Homo sapiens (Human), UniProt Q8NI77)
# Assay: KIF18A enzyme assay (microtubule-stimulated ATPase activity, ADP-Glo)
# Type: biochemical
# Settings: 30 nM KIF18A, ATP 75 μM, read-out: inhibitory activity against KIF18A IC50
# Experimental: Biological Example 1. Assay for In Vitro Inhibition of Enzymatic Activity of KIF18A by Compounds of the Present Invention
# KIF18A enzyme assay: The enzymatic activity of KIF18A after treatment with the compounds was measured by an assay of microtubule-stimulated ATPase activity. ADP generated from the ATPase reaction was measured in this assay. The compounds were serially diluted 2-fold in DMSO over a range of 22 concentration points. Recombinant human KIF18A (1-467His-tagged) protein was expressed using a baculovirus system. Concentrations of KIF18A protein, microtubules, and ATP in the reaction were optimized for a standardized homogenous enzyme assay using an ADP-Glo kinase/ATPase assay kit. A reaction buffer [(15 mM Tris, pH 7.5), 10 mM MgCl2, 0.01% PluronicF-68, 1 μM paclitaxel, and 30 μg/mL pig microtubules] was prepared. The compounds and KIF18A protein (30 nM) were added to the prepared reaction buffer, and the reaction mixture was incubated at room temperature for 15 min, followed by addition of ATP (Km, 75 μM). The resulting reaction mixture was incubated at room temperature for another 15 min. 5 μL of ADP-Glo reagent and 2.5 μL of the reaction mixture were mixed and the resulting mixture was incubated at room temperature for 40 min. 10 μL of ADP-Glo detection reagent was added and the mixture was incubated at room temperature for 40 min. Luminescence was measured using a microplate reader and compared with that of the DMSO group, and then the inhibition percentages and IC50 values of the compounds were calculated.
# Recombinant human KIF18A (1-467His-tagged) protein, sequence (Q8NI77 1-467): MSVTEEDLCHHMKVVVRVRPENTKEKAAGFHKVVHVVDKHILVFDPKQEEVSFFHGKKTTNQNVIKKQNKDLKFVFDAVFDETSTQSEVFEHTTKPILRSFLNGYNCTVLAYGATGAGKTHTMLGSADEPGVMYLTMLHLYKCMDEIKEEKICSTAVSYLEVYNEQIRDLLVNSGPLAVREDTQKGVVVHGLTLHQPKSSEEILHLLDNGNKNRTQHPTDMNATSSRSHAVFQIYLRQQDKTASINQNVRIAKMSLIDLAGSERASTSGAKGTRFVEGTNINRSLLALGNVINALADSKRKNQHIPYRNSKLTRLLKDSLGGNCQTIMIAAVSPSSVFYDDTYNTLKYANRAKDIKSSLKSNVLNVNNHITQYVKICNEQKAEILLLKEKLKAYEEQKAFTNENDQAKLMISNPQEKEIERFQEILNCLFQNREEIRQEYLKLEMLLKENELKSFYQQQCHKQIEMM
# Recombinant human KIF18A (1-467His-tagged) protein, sequence (P02550 whole entry partner): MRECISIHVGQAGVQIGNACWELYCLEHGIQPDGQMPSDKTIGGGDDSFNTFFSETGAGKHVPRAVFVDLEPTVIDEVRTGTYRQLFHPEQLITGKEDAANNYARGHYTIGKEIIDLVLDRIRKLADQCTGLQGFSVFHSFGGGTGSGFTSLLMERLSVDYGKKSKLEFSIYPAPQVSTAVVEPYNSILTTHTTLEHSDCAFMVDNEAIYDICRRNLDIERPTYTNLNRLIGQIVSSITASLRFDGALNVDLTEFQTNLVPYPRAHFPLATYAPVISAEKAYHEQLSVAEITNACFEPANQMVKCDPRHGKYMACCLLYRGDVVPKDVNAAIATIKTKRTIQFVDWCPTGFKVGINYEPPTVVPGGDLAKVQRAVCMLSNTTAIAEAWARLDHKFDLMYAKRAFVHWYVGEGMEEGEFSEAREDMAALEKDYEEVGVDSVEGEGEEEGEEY
# Recombinant human KIF18A (1-467His-tagged) protein, sequence (P02554 whole entry partner): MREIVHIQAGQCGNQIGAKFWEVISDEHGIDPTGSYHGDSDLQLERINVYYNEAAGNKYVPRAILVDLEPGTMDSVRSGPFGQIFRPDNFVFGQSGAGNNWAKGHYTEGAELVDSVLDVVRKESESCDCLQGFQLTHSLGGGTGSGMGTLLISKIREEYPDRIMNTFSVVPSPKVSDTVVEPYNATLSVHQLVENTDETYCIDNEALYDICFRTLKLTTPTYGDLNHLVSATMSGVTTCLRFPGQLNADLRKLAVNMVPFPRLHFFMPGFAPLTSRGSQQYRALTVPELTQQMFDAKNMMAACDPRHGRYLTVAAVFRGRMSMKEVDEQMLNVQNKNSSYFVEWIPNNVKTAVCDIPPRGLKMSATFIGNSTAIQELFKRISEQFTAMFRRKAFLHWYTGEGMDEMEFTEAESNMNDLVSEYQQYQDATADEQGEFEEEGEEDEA
row,IC50 [nM],Compound
1,≤ 100,C[C@H]1CN(c2nc(C(=O)Nc3ccc(NS(=O)(=O)CCO)cc3N3CCC4(CC3)CC4)cc3ccoc23)CCO1 [Compound 227]
2,≤ 100,C[C@@H]1CN(c2nc(NC(=O)c3ccc(S(=O)(=O)N[C@@H](C)CO)cc3N3CCC4(CC3)CC4)cc3c2OCC3)CCO1 [Compound 95]
3,≤ 100,C[C@@H]1CN(c2nc(C(=O)Nc3ccc(S(=O)(=O)N[C@@H](C)CO)cc3N3CCC4(CC3)CC4)cc3c2OCC3)CCO1 [Compound 127]
4,≤ 100,C[C@@H]1CN(c2nc(C(=O)Nc3ccc(NS(=O)(=O)[C@@H](C)CO)cc3N3CCC4(CC3)CC4)cc3c2N(C)CC3)CCO1 [Compound 367]
5,≤ 100,C[C@@H]1CN(c2cc(C(=O)Nc3ccc(NS(=O)(=O)[C@H](C)CO)cc3N3CCC4(CC3)CC4)cc3c2N(C)CC3)CCO1 [Compound 304]
6,≤ 100,O=C(Nc1ccc(S(=O)(=O)NCCO)cc1N1CCC2(CC1)CC2)c1cc2c(c(N3CCC(F)CC3)n1)OCC2 [Compound 121]
7,≤ 100,C[C@H]1CN(c2cc(NC(=O)c3ccc(S(=O)(=O)NCCO)cc3N3CCC4(CC3)CC4)cc3c2OCC3)CCO1 [Compound 19]
8,≤ 100,CN1CCc2cc(NC(=O)c3ccc(NS(=O)(=O)CCO)cc3N3CCC4(CC3)CC4)nc(N3CC(F)(F)C3)c21 [Compound 324]
9,≤ 100,C[C@H](CO)NS(=O)(=O)c1ccc(C(=O)Nc2cc3ccn(C)c3c(N3CCO[C@H](C)C3)n2)c(N2CCC3(CC2)CC3)c1 [Compound 480]
10,≤ 100,C[C@@H]1CN(c2nc(NC(=O)c3ccc(NS(=O)(=O)[C@H](C)CO)cc3N3CCC4(CC3)CC4)cc3ccn(C)c23)CCO1 [Compound 464]
11,≤ 100,C[C@@H]1CN(c2nc(C(=O)Nc3ccc(S(=O)(=O)NCCO)cc3N3CCC4(CC3)CC4)cc3ccn(C)c23)CCO1 [Compound 498]
12,≤ 100,C[C@@H](CO)S(=O)(=O)Nc1ccc(C(=O)Nc2cc3c(c(N4CCC(F)(F)CC4)c2)OCC3)c(N2CCC3(CC2)CC3)c1 [Compound 13]
13,≤ 100,C[C@H](CO)NS(=O)(=O)c1ccc(C(=O)Nc2cc3c(c(N4CCO[C@H](C)C4)n2)OCC3)c(N2CCC3(CC2)CC3)c1 [Compound 96]
14,≤ 100,O=C(Nc1cc2c(c(N3CCC(F)(F)CC3)n1)OCCC2)c1ccc(S(=O)(=O)NCCO)cc1N1CCC2(CC1)CC2 [Compound 549]
15,≤ 100,O=C(Nc1cc2c(c(N3CCC(F)CC3)c1)OCC2)c1ccc(NS(=O)(=O)CCO)cc1N1CCC2(CC1)CC2 [Compound 9]
16,≤ 100,C[C@H]1CN(c2nc(C(=O)Nc3ccc(S(=O)(=O)NCCO)cc3N3CCC4(CC3)CC4)cc3c2OCC3)CCO1 [Compound 115]
17,≤ 100,C[C@@H]1CN(c2cc(C(=O)Nc3ccc(NS(=O)(=O)CCO)cc3N3CCC4(CC3)CC4)cc3ccoc23)CCO1 [Compound 162]
18,≤ 100,C[C@@H]1CN(c2cc(C(=O)Nc3ccc(S(=O)(=O)NCCO)cc3N3CCC4(CC3)CC4)cc3c2OCC3)CCO1 [Compound 50]
19,≤ 100,C[C@@H]1CN(c2nc(C(=O)Nc3ccc(S(=O)(=O)NCCO)cc3N3CCC4(CC3)CC4)cc3ccoc23)CCO1 [Compound 242]
20,≤ 100,C[C@H](CO)NS(=O)(=O)c1ccc(NC(=O)c2cc(N3CCO[C@H](C)C3)c3c(ccn3C)c2)c(N2CCC3(CC2)CC3)c1 [Compound 448]
21,≤ 100,C[C@H](CO)NS(=O)(=O)c1ccc(NC(=O)c2cc3c(c(N4CCO[C@H](C)C4)c2)N(C)CC3)c(N2CCC3(CC2)CC3)c1 [Compound 320]
22,≤ 100,O=C(Nc1cc2c(c(N3CCC(F)(F)CC3)c1)OCC2)c1ccc(S(=O)(=O)NCCO)cc1N1CCC2(CC1)CC2 [Compound 17]
23,≤ 100,O=C(Nc1cc2ccoc2c(N2CCOCC2)n1)c1ccc(NS(=O)(=O)CCO)cc1N1CCC2(CC1)CC2 [Compound 204]
24,≤ 100,O=C(Nc1ccc(S(=O)(=O)NCCO)cc1N1CCC2(CC1)CC2)c1cc2c(c(N3CC(F)(F)C3)n1)OCC2 [Compound 116]
25,≤ 100,O=C(Nc1ccc(S(=O)(=O)NCCO)cc1N1CCC2(CC1)CC2)c1cc2c(c(N3CC4CC4C3)c1)OCC2 (stereo not shown) [Compound 58]
26,≤ 100,C[C@@H]1CN(c2cc(NC(=O)c3ccc(NS(=O)(=O)[C@@H](C)CO)cc3N3CCC4(CC3)CC4)cc3ccn(C)c23)CCO1 [Compound 399]

# More lines, now with the values behind:
row,Compound,IC50 [nM]
1,Cn1ccc2cc(C(=O)Nc3ccc(S(=O)(=O)NCCO)cc3N3CCC4(CC3)CC4)cc(N3CCC(F)(F)CC3)c21 [Compound 433],≤ 100
2,C[C@@H]1CN(c2cc(C(=O)Nc3ccc(NS(=O)(=O)[C@H](C)CO)cc3N3CCC4(CC3)CC4)cc3ccn(C)c23)CCO1 [Compound 432],≤ 100
3,Cn1ccc2cc(C(=O)Nc3ccc(S(=O)(=O)NCCO)cc3N3CCC4(CC3)CC4)cc(NC(C)(C)CO)c21 [Compound 443],≤ 100
4,Cn1ccc2cc(C(=O)Nc3ccc(S(=O)(=O)NCCO)cc3N3CCC4(CC3)CC4)nc(OC3CCC3)c21 [Compound 503],≤ 100
5,O=C(Nc1cc(N2CCC(F)CC2)c2occc2c1)c1ccc(S(=O)(=O)NCCO)cc1N1CCC2(CC1)CC2 [Compound 153],≤ 100
6,O=C(Nc1ccc(NS(=O)(=O)CCO)cc1N1CCC2(CC1)CC2)c1cc(OCCC(F)(F)F)c2occc2c1 [Compound 165],≤ 100
7,Cn1ccc2cc(NC(=O)c3ccc(NS(=O)(=O)CCO)cc3N3CCC4(CC3)CC4)nc(N3CCC(F)(F)CC3)c21 [Compound 449],≤ 100
8,O=C(Nc1ccc(S(=O)(=O)NCCO)cc1N1CCC2(CC1)CC2)c1cc(N2CCOCC2)c2occc2c1 [Compound 188],≤ 100
9,O=C(Nc1ccc(S(=O)(=O)NCCO)cc1N1CCC2(CC1)CC2)c1cc2ccoc2c(OC2CCC2)n1 [Compound 247],≤ 100
10,CN1CCc2cc(NC(=O)c3ccc(S(=O)(=O)NCCO)cc3N3CCC4(CC3)CC4)cc(N3CC4CC4C3)c21 (stereo not shown) [Compound 282],≤ 100
11,O=C(Nc1ccc(S(=O)(=O)NCCO)cc1N1CCC2(CC1)CC2)c1cc(N2CC(F)(F)C2)c2occc2c1 [Compound 180],≤ 100
12,O=C(Nc1ccc(S(=O)(=O)NCCO)cc1N1CCC2(CC1)CC2)c1cc2ccoc2c(N2CC3CC3C2)n1 (stereo not shown) [Compound 250],≤ 100
13,CN1CCc2cc(NC(=O)c3ccc(NS(=O)(=O)CCO)cc3N3CCC4(CC3)CC4)cc(N3CCC4(CC4)C3)c21 [Compound 262],≤ 100
14,CN1CCc2cc(C(=O)Nc3ccc(NS(=O)(=O)CCO)cc3N3CCC4(CC3)CC4)nc(NC(C)(C)CO)c21 [Compound 363],≤ 100
15,CN1CCc2cc(C(=O)Nc3ccc(S(=O)(=O)NCCO)cc3N3CCC4(CC3)CC4)nc(N3CC(F)(F)C3)c21 [Compound 372],≤ 100
16,O=C(Nc1cc(N2CC3CC3C2)c2occc2c1)c1ccc(S(=O)(=O)NCCO)cc1N1CCC2(CC1)CC2 (stereo not shown) [Compound 154],≤ 100

row,Compound,IC50 [nM]
1,O=C(Nc1ccc(S(=O)(=O)NCCO)cc1N1CCC2(CC1)CC2)c1cc2ccoc2c(OCCC(F)(F)F)n1 [Compound 245],≤ 100
2,CN1CCc2cc(C(=O)Nc3ccc(NS(=O)(=O)CCO)cc3N3CCC4(CC3)CC4)nc(N3CCOCC3)c21 [Compound 364],≤ 100
3,C[C@H](CO)NS(=O)(=O)c1ccc(NC(=O)c2cc(N3CCC(F)(F)CC3)c3c(ccn3C)c2)c(N2CCC3(CC2)CC3)c1 [Compound 446],≤ 100
4,CN1CCc2cc(C(=O)Nc3ccc(NS(=O)(=O)CCO)cc3N3CCC4(CC3)CC4)nc(N3CCC(F)CC3)c21 [Compound 361],≤ 100
5,CC(C)(CO)Nc1cc(NC(=O)c2ccc(S(=O)(=O)NCCO)cc2N2CCC3(CC2)CC3)cc2ccoc12 [Compound 155],≤ 100
6,CN1CCc2cc(NC(=O)c3ccc(NS(=O)(=O)CCO)cc3N3CCC4(CC3)CC4)cc(N3CCC(F)CC3)c21 [Compound 265],≤ 100
7,O=C(Nc1cc2ncoc2c(N2CCC(F)(F)CC2)n1)c1ccc(NS(=O)(=O)CCO)cc1N1CCC2(CC1)CC2 [Compound 514],≤ 100
8,Cn1ccc2cc(NC(=O)c3ccc(S(=O)(=O)NCCO)cc3N3CCC4(CC3)CC4)cc(OC3CCC3)c21 [Compound 407],≤ 100
9,O=C(Nc1ccc(S(=O)(=O)NCCO)cc1N1CCC2(CC1)CC2)c1cc2c(c(OCCC(F)(F)F)n1)OCC2 [Compound 117],≤ 100
10,O=C(Nc1cc(N2CCC(F)(F)CC2)c2occc2c1)c1ccc(S(=O)(=O)NCCO)cc1N1CCC2(CC1)CC2 [Compound 145],≤ 100
11,O=C(Nc1ccc(S(=O)(=O)NCCO)cc1N1CCC2(CC1)CC2)c1cc(OCCC(F)(F)F)c2occc2c1 [Compound 181],≤ 100
12,CN1CCc2cc(C(=O)Nc3ccc(S(=O)(=O)NCCO)cc3N3CCC4(CC3)CC4)cc(N3CCC(F)CC3)c21 [Compound 313],≤ 100
13,Cn1ccc2cc(NC(=O)c3ccc(S(=O)(=O)NCCO)cc3N3CCC4(CC3)CC4)cc(N3CC4CC4C3)c21 (stereo not shown) [Compound 410],≤ 100
14,CC(C)(CO)Nc1cc(NC(=O)c2ccc(NS(=O)(=O)CCO)cc2N2CCC3(CC2)CC3)cc2c1OCC2 [Compound 11],≤ 100
15,Cn1ccc2cc(C(=O)Nc3ccc(S(=O)(=O)NCCO)cc3N3CCC4(CC3)CC4)nc(N3CCC(C)(F)C3)c21 (stereo not shown) [Compound 504],≤ 100
16,Cn1ccc2cc(C(=O)Nc3ccc(NS(=O)(=O)CCO)cc3N3CCC4(CC3)CC4)nc(N3CCC(C)(F)C3)c21 (stereo not shown) [Compound 488],≤ 100
